According to US20260191937A1, “AGENTS, COMPOSITIONS AND METHODS FOR MODULATING IMMUNITY” (The University of Queensland, priority 2022, published 2026):

Tests used:
[1] = system: uropathogenic Escherichia coli (UPEC) strain EC958; assay: Growth of UPEC strain EC958 with or without H2O2 oxidative stress (OD600, 12 h); assay type: cell-based
Protocol: FIG. 5 is a graphical representation showing effect of increasing RL5P concentrations on the growth of uropathogenic Escherichia coli (UPEC) strain EC958 under conditions of oxidative stress in the form of 0.8 mM H2O2. (A) EC958 was cultured±H2O2 (0.8 mM) in the presence of the indicated concentrations of RL5P for 12 h, during which growth was assessed (A600 at the indicated time points); (B) Area under the curve analysis for the 12 h period was calculated thereafter and is presented in FIG. 5B. Data are compiled from four independent experiments and are presented as mean±SEM. Each symbol represents a different experiment. Statistical significance for (B) was determined using repeated measure two-way ANOVA followed by non-parametric Kruskal Wallis test followed by Dunn's multiple comparison test (ns—not significant; * p<0.05; **** p<0.0001).
FIG. 6 is a graphical representation showing effect of increasing RL5P concentrations on the growth of UPEC under conditions of oxidative stress in the form of 1 mM H2O2. (A) EC958 was cultured±H2O2 (1 mM) in the presence of the indicated concentrations of RL5P for 12 h, during which growth was assessed (A600 at the indicated time points); (B) EC958 was cultured in the presence of the indicated concentrations of RL5P and the absence of H2O2 for 12 h, during which growth was assessed (A600 at the indicated time points). Data are compiled from four independent experiments and are presented as mean±SEM.
FIG. 7 is a graphical representation showing the effect of RL5P and 6-phosphogluconate (6PG) on the on the growth of UPEC under conditions of oxidative stress in the form of H202. (A) EC958 was cultured±H2O2 (0.8 mM) in the presence of the indicated concentration of RL5P or 6PG for 12 h, during which growth was assessed (A600 at the indicated time points); (B). Each symbol represents a different experiment. Statistical significance for (B) was determined using repeated measure two-way ANOVA followed by non-parametric Kruskal Wallis test followed by Dunn's multiple comparison test (ns—not significant; * p<0.05; **** p<0.0001).
All bacterial strains were cultured at 37° C. on solid or liquid Luria-Bertani (LB) medium. The non-pathogenic E. coli K12 strain MG1655 (Blattner et al., 1997. Science. 277:1453-1462) and EC958, a representative strain of the globally-disseminated multidrug-resistant ST131 clone isolated from the urine of a patient with a urinary tract infection (Totsika et al., 2011, PloS one. 6:e26578-e26578; Petty et al., 2014, Proc Natl Acad Sci USA. 111:5694-5699), were used in this study. […] Bacterial growth was assessed by monitoring OD600 using a POLARstar Omega (BMG Labtech) at 20-30 min intervals.

[2] = system: Human monocyte-derived macrophages (HMDM); assay: Cytokine release (ELISA) from human monocyte-derived macrophages pre-treated with RL5P; assay type: cell-based
Protocol: (§1) FIG. 3 is a graphical representation showing the effect of R5LP treatment of macrophages on the release of cytokines IL-1β and TNF. (A-B) Human monocyte-derived macrophages (HMDM) were pre-treated with ribulose-5-phosphate (RL5P) for 16 h at the indicated concentrations. Nigericin-triggered IL-1β release from LPS-primed cells (A), as well as LPS-induced TNF (B) in culture supernatants were assessed by ELISA. (C-D) BMM were pre-treated for 16 h with RL5P at the indicated concentrations. Nigericin-triggered IL-1β release from LPS-primed cells (C), as well as LPS-induced TNF (D) in culture supernatants were assessed by ELISA. Data were compiled from six independent experiments (or donors) and are presented as mean±S.E.M. Statistical significance was determined using two-way ANOVA followed by Sidak's multiple comparison test (ns—not significant; * p<0.05; ** p<0.01).
(§2) FIG. 4 is a graphical representation showing the effect of R5LP treatment of macrophages on the release of cytokine IL-6. HMDM and BMM were pre-treated with the indicated concentrations of RL5P for 16 h, after which they were either stimulated with LPS (10 ng/mL) or infected with uropathogenic Escherichia coli (UPEC) strain EC958 (MOI 100) for 4 h. Supernatants were then assessed for secreted IL-6 by ELISA. Data were compiled from six independent experiments (or donors) and are presented as mean±SEM. Panel A presents IL-6 release (ng/mL), Panel B present IL-6 release normalized to LPS alone. Statistical significance was determined using repeated measure two-way ANOVA followed by Dunnett's multiple comparison test (A-B) (ns—not significant).
(§3) BMM were generated from indicated strains of mice, as previously described (Das Gupta et al., 2020, Cell Rep. 30:2712-2728.e2718). Bone marrow cells were cultured for 6 days in RPMI-1640 media (Thermo Fisher Scientific) supplemented with 10% FCS, 50 U/mL penicillin, 50 μg/mL streptomycin and 2 mM L-glutamine, in the presence of recombinant human colony-stimulating factor 1 (CSF-1), at either 1×10^4 U/mL (Chiron) or 150 ng/mL (The University of Queensland Protein Expression Facility). On day 6, BMM were harvested and replated at an appropriate density with fresh CSF-1, with cells being used in experiments on the following day. […]
(§4) BMM (5×10^5 cells/mL) or HMDM (5×10^5 cells/mL) were treated as indicated in individual figure legends. Supernatants were collected and assessed for secreted TNF. […] Supernatants were collected and analyzed for levels of IL-1β. […]

[3] = system: bone marrow-derived macrophages (BMM); assay: Cytokine release (ELISA) from mouse bone marrow-derived macrophages pre-treated with RL5P; assay type: cell-based
Protocol: as §1, §2, §3, §4

[4] = system: bone marrow-derived macrophages (BMM); assay: Retroviral overexpression of Pgd (6PGD) in BMM, cytokines by ELISA; assay type: cell-based, mouse
Protocol: FIG. 2 is a graphical representation showing the effect of over expression of the 6PGD gene on the release of cytokines IL-1β, TNF and IL-6. The Pgd gene was retrovirally overexpressed in BMM. Nigericin-triggered IL-1β release from LPS-primed cells (A), as well as LPS-induced TNF (B) and IL-6 (C), in culture supernatants were assessed by ELISA. Data were compiled from five independent experiments and are presented as mean±S.E.M. Statistical significance was determined using two-way ANOVA followed by Sidak's multiple comparison test (ns—not significant; * p<0.05; ** p<0.01).
Retroviral overexpression of target genes in primary macrophages was performed as previously described (Das Gupta et al., 2020, Cell Rep. 30:2712-2728.e2718). Briefly, 2×10^6 PlatE cells were transfected with 40 μg of the respective retroviral expression vectors using Lipofectamine 2000 (Thermo Fisher Scientific). At 24 h post-transfection, media were replaced and cells were incubated at 32° C. for 48 h for optimal virus production. Viral supernatants were filtered through a […] Millex-HV PVDF syringe filter (Merck) and supplemented with 1M HEPES, 10 μg/mL polybrene and CSF-1. Bone marrow progenitors treated with CSF-1 for 2 days were spin-infected (1000 g, 2 h, 35° C.) with viral supernatants in 6-well non-tissue culture plates. The cells were immediately supplemented with complete RPMI media, then incubated at 37° C. for 48 h. At 48 h post-transduction, cells were supplemented with complete RPMI media. On day 6 of macrophage differentiation, adherent cells were collected and plated for subsequent experiments.
BMM (5×10^5 cells/mL) or HMDM (5×10^5 cells/mL) were treated as indicated in individual figure legends. Supernatants were collected and assessed for secreted TNF. To assess secreted IL-1β by ELISA, cells were further treated with Nigericin for 1 h (2 h for HMDMs). Supernatants were collected and analyzed for levels of IL-1β. For experiments comparing macrophages derived from mice of different genotypes, MTT assays were performed in parallel to control for any differences in plating densities.

Row | Molecule | UPEC growth under oxidative stress ([1]; 0.8 mM H2O2) | inducible TNF production (secreted TNF) ([2]; HMDM pre-treated with RL5P for 16 h, ELISA) | Nigericin-triggered IL-1β release from LPS-primed cells ([2]; HMDM pre-treated with RL5P for 16 h, LPS, ELISA) | Suppression of IL-1β production in cells responding to Escherichia coli ([2]; HMDM, E. coli instead of LPS, effect in HMDM reduced to a lesser extent than in BMM) | inducible IL-6 production ([2]; HMDM, RL5P 16 h, then LPS (10 ng/mL) or UPEC EC958 (MOI 100) 4 h, ELISA) | inducible TNF production (secreted TNF) ([3]; BMM pre-treated with RL5P for 16 h, ELISA) | Nigericin-triggered IL-1β release from LPS-primed cells ([3]; BMM pre-treated with RL5P for 16 h, LPS, ELISA) | Suppression of IL-1β production in cells responding to Escherichia coli ([3]; BMM, E. coli instead of LPS) | inducible IL-6 production ([3]; BMM, RL5P 16 h, then LPS (10 ng/mL) or UPEC EC958 (MOI 100) 4 h, ELISA) | UPEC growth under oxidative stress ([1]; 1 mM H2O2) | UPEC growth in the absence of oxidative stress ([1]; no H2O2) | LPS-induced IL-6 [4] | LPS-induced TNF [4] | inducible IL-1β response ([4]; Nigericin-triggered release from LPS-primed cells)
1 | O=C(O)[C@H](O)[C@@H](O)[C@H](O)[C@H](O)COP(=O)(O)O [6PG, 6-phosphogluconate, reference compound] | did not affect UPEC growth |  |  |  |  |  |  |  |  |  |  |  |  | 
2 | O=C(CO)[C@H](O)[C@H](O)COP(=O)([O-])[O][Na+] [RL5P, Disodium [(2R,3R)-2,3,5-trihydroxy-4-oxopentyl]phosphate] | significantly impaired E. coli growth in a dose-dependent manner | dramatically reduced secreted TNF levels | suppressed LPS-inducible IL-1β production | much less pronounced | did not affect inducible IL-6 production | modest | suppressed LPS-inducible IL-1β production | much less pronounced | did not affect inducible IL-6 production | also apparent | did not affect UPEC growth |  |  | 
3 | 6PGD: 6-phosphogluconate dehydrogenase ectopically expressed; retroviral Pgd overexpression in BMM; in b299 delivered as mRNA in DMONs (protein, 6-phosphogluconate dehydrogenase ectopically expressed; in b299 delivered as mRNA in DMONs) MAQADIALIGLAVMGQNLILNMNDHGFVVCAFNRTVSKVDDFLANEAKGTKVVGAQSLKDMVSKLKKPRRVILLVKAGQAVDDFIEKLVPLLDTGDIIIDGGNSEYRDTTRRCRDLKAKGILFVGSGVSGGEEGARYGPSLMPGGNKEAWPHIKAIFQAIAAKVGTGEPCCDWVGDEGAGHFVKMVHNGIEYGDMQLICEAYHLMKDVLGMRHEEMAQAFEEWNKTELDSFLIEITANILKYRDTDGKELLPKIRDSAGQKGTGKWTAISALEYGMPVTLIGEAVFARCLSSLKEERVQASQKLKGPKVVQLEGSKKSFLEDIRKALYASKIISYAQGFMLLRQAATEFGWTLNYGGIALMWRGGCIIRSVFLGKIKDAFERNPELQNLLLDDFFKSAVDNCQDSWRRVISTGVQAGIPMPCFTTALSFYDGYRHEMLPANLIQAQRDYFGAHTYELLTKPGEFIHTNWTGHGGSVSSSSYNA |  |  |  |  |  |  |  |  |  |  |  | unaffected | significantly reduced LPS-induced TNF | attenuated the inducible IL-1β response
